{
  "source": "paper PMC7178755",
  "about": "(Toxicology and applied pharmacology, 2019)",
  "origin": "cited, not measured here",
  "key": {"[1]": {"settings": "rat uterotrophic assay; administered orally; ref Conley et al., 2016; cited from earlier work"}, "[2]": {"system": "hepatocytes from humans and rodents", "settings": "ref Waidyanatha et al., 2015, cited from earlier work"}},
  "data": [
    {"compound": "Oc1ccc(C(c2ccc(O)cc2)(C(F)(F)F)C(F)(F)F)cc1", "note": "[BPAF, Bisphenol AF]", "values": [
      {"measurement": "ED50", "setting": "[1]", "result": 209.1, "unit": "mg/kg/day"},
      {"measurement": "clearance compared with BPA", "setting": "[2]; hepatocytes from humans and rodents, in vitro", "result": "cleared more slowly than BPA"},
      {"measurement": "clearance rank order between species", "setting": "[2]; hepatocytes in vitro", "result": "rat > mouse > human"}
    ]}
  ]
}
